# Assay results published in patent US9193729B2, “Inhibiting transient receptor potential ion channel TRPA1” (Cubist Pharmaceuticals, Inc., priority 2011, dated 2015).
# Legend:
# [1] = test system: serum biomarkers of hepatotoxicity; test: Hepatotoxicity serum biomarker study in dogs, oral dose; format: in vivo, dog; conditions: dogs, 50 mg/kg PO
# Description: The compound of Formula (Ia) was orally dosed to […] at dose levels of 5, 15 or 50 mg/kg using 30% Sulfobutylether β-cyclodextrin as the vehicle for assessment of safety as measured via serum chemistry biomarkers of hepatotoxicity or bile duct injury FIG. 5A, showing measurements of alanine aminotranferease [ALT], aspartate aminotranferease [AST], alkaline phosphatase [ALP] and gamma-glutamyl transferase [GGT] in the dogs at each dose level (each bar represents a measurement from 1 dog in the study). […] For example, the ALT levels were elevated up to about 60-fold in male dogs and up to about 130-fold in female beagle dogs following a single PO dose of 50 mg/kg.
# [2] = test system: formalin-induced pain behavior; test: Formalin-induced pain behavior in vivo rodent model; design: species or system rat; conditions: i.p. administration, in words
# Description: The data shown in Tables 3a, 3b, and 3c and FIG. 2 were obtained by administering a pharmaceutical composition comprising the compound of Formula (Ia) to rodents in the formalin-induced pain duration at various doses according to Example 5. Specifically, the data in Tables 3a, 3b, and 3c and FIG. 2 were obtained by intraperitoneal (i.p.) administration of compositions containing different concentrations of the compound of Formula (Ia), a comparator composition containing recited amounts of the comparator compound (e.g., 150 mg/kg of the comparator compound of Formula (II) in Table 3a) and a control composition containing the vehicle (e.g., without the compound of Formula (Ia) or a comparator compound).
# The compound of Formula (Ia) and the comparator compounds of Formula (II) and Formula (III) were tested in the formalin-induced pain test reported by Dubuisson et al., Pain 1977 December; 4(2):161-74 (incorporated herein by reference in its entirety). Dubuisson et al. (1977) describe a method for assessing pain and analgesia in rats and cats. Briefly, dilute formalin (50 μL of 3% formalin) is injected into the plantar surface of the hind paw. […] The individual responsible for counting the pain behaviors in a particular study is blinded to the treatment groups.
# Rats were treated with the HCl salt of Compound (Ia) at various doses (3, 10, 30, and 50 mg/kg, IP) or with the vehicle (IP).
compound,measurement,setting,value
C[C@H]1CCCN1c1ncc(-c2cccc(NC(=O)Cn3cnc4c3c(=O)n(C)c(=O)n4C)n2)cn1 [Formula (Ia)],"serum biomarkers of hepatotoxicity (ALT, AST, ALP, GGT)",[1],did not elevate serum biomarkers of hepatotoxicity or acute phase response
same,duration of pain behavior compared with vehicle,[2],shorter durations of pain behavior than those treated with the vehicle
